{"source": "patent US8673913B2", "about": "“SHP-2 phosphatase inhibitor” (Case Western Reserve University, priority 2009, dated 2014)", "tested_on": "myeloid progenitors, wildtype and SHP-2 E76K", "test": "hematopoietic progenitor cell colony formation assay (CFU-GM)", "format": "cell-based, mouse", "description": "To determine cellular response of myeloid progenitors to IL-3, bone marrow cells (5×10^4 cells/ml) freshly harvested from C57BL6 mice were assayed for colony forming units (CFUs) in 0.9% methylcellulose IMDM medium containing 30% FBS, glutamine (10^−4 M), β-mercaptoethanol (3.3×10^−5 M), and IL-3 (10 ng/ml). After 7 days of culture at 37° C. in a humidified 5% CO2 incubator, hematopoietic cell colonies (primarily CFU-GM) were counted under an inverted microscope.\nFIG. 13 illustrates A). […] Bone marrow cells were harvested from wildtype and mutant mice with SHP-2 E76K mutation. IL-3 induced myeloid progenitor cell colony (CFU-GM) formation assays were performed as described in the Examples in the presence of various concentrations of active compounds. Shown are the results of a representative compound #324. B). Inhibition of growth factor-independent colony formation of myeloid progenitors with SHP-2 activating mutation E76K by active compounds. Bone marrow cells were harvested from wildtype and mutant mice with SHP-2 E76K mutation. The cells were assayed for CFU-GM without cytokines in the presence of various concentrations of active compounds. Shown are the results of a representative compound #324."}
{"smiles": "Cc1cc(C)c2[nH]c3nc(SCC(=O)Nc4cccc5ccccc45)nnc3c2c1", "note": "[#324]", "values": [{"measurement": "growth factor-independent colony formation of E76K myeloid progenitors", "setting": "CFU-GM without cytokines", "result": "Inhibition"}, {"measurement": "sensitivity of E76K myeloid progenitors versus wild type (IL-3 induced CFU-GM)", "setting": "IL-3 induced colony formation", "result": "more sensitive"}]}
